According to a melting point compilation (Tetko et al.; mined from patent text by program, amines drawn as free bases though some values may be those of a salt):
Non-standard residues stand in square brackets, D forms with d. Residues, ends and D or L forms follow the SMILES beside them. *: point of attachment. Tos = Cc1ccc(S(=O)(=O)*)cc1; Sar = CNCC(=O)O

`CC(ON1C(C)(C)CC(O)CC1(C)C)C(=O)NCCCN(C)C` (stereo not given) showed a melting point of 85 to 88 °C. Molecule `CSc1ccc(-c2oc3ccccc3c(=O)c2-c2ccc(C(F)(F)F)cc2)cc1` has a melting point of 189 to 192 °C. Molecule `Cc1nonc1-n1cc(C(=O)O)c(=O)c2cc(F)c(Cl)nc21` has a melting point of 242 to 247 °C. Work on `Fc1ccc(-c2nn3c(c2-c2ccncc2)NNCC3)cc1` yielded a melting point of 233 to 235 °C. `Cc1ccc(C=CC(=O)C=Cc2ccc([N+](=O)[O-])cc2)cc1` showed a melting point of 182 to 184 °C. `C#CCn1c2c(c(=O)n(-c3ccc(Cl)c(C(=O)OCC)c3)c1=O)CCC2` showed a melting point of 121 to 123 °C. `CCC(=O)c1ccc2cc(OC(C)C)ccc2c1` showed a melting point of 79 to 80 °C. `CC(O)c1cc2c3ccccc3[nH]c(=O)n2n1` (stereo not given) showed a melting point of 242 to 245 °C. Molecule `CC(=O)OCc1c(C)n(Cc2ccccc2)c2c(OCc3ccc(F)cc3)nncc12` has a melting point of 109 to 110 °C. With `CSc1cc2c(cc1C(F)(F)F)N(C(=O)Nc1cccc(C(=O)NCCN(C(C)C)C(C)C)c1)CC2` the melting point was 97 to 99 °C. For `CCCNC(=O)c1ccc(-c2ccc3nnn(Cc4ccc5ncccc5c4)c3n2)cc1Cl`, the melting point was 128 to 130 °C. For `CC1(CCCOc2ccc([N+](=O)[O-])c(C=C3NC(=O)NC3=O)c2)OCCO1`, the melting point was 175 to 180 °C. `CC1=Nc2ccc(F)c(F)c2OC1` gave a melting point of 51.2 °C. `COc1cccc(C(=C/C=C/C(=O)NCCCCCCc2cccnc2)c2cccc(OC)c2)c1` gave a melting point of 66 to 70 °C. With `CCc1n[nH]c(CC)c1CCCCCCOc1cc(Cl)c(OC)cc1Cl` the melting point was 148 to 150 °C. For `COc1ccc2nccc(NC(=O)N3CCN(CC(O)c4cnc5ccccc5n4)CC3)c2n1` (stereo not given), the melting point was 133 to 135 °C. For `CCCc1c(OCCCCCOc2ccc(C(=O)c3ccccc3CC(=O)O)cc2CCC(=O)O)ccc2c1OCCC2=O`, the melting point was 105 to 108 °C. For `C[Si](C)(Cc1ccc(N(c2ccccc2)c2ccccc2)cc1)Cc1ccc(N(c2ccccc2)c2ccccc2)cc1`, the melting point was 125 to 127 °C. `CCOC(=O)c1nn(-c2c(Cl)cc(C(F)(F)F)cc2Cl)cc1O` gave a melting point of 140 to 143 °C. In the case of `CCC(Oc1c(C(C)C)cccc1C(C)C)C(=O)OC1CC(O)C=C2C=CC(C)C(CCC3CC(O)CC(=O)O3)C21` (mixture of isomers), the melting point is reported as 119 to 121 °C. Work on `CS(=O)(=O)c1ccc(-c2cnn(-c3ccc(F)cc3)c(=O)c2Cc2ccc(F)cc2)cc1` yielded a melting point of 175 to 177 °C. For `CS(=O)(=O)c1ccc(Oc2ccc([N+](=O)[O-])cc2[N+](=O)[O-])cc1`, the melting point was 176 to 177 °C. `O=Cc1ccc(CC(=O)OCc2ccccc2)cc1` showed a melting point of 54 to 55 °C. In the case of `Cc1nc2ccccc2c(NCc2ccccc2)c1C(=O)O`, the melting point is reported as 190 °C. `CONC(=O)Cc1ccccc1Nc1c(Cl)cccc1Cl` gave a melting point of 177 to 178 °C. `CCc1c(-c2ccc(CO)cc2)c2cc(C(C)=O)c3cccc1n32` showed a melting point of 73 to 77 °C. In the case of `O=S(=O)(NCCC(F)=C(F)F)c1ccc(C(F)(F)F)cc1`, the melting point is reported as 68 to 70 °C. Molecule `CC(Cc1ccc(OCCCCO)cc1)NCC(O)c1cccc(C(F)(F)F)c1` (stereo not given) has a melting point of 69 to 76 °C. `CN(C)c1ccc(C2NCCc3sccc32)cc1` (stereo not given) showed a melting point of 95 to 98 °C. For `CC1(c2ccc(Cl)cc2)Cc2cc(O)c(Cl)c(Cl)c2C1=O` (stereo not given), the melting point was 211 to 213 °C. In the case of `Cc1ccc(S(=O)(=O)N(C)CC(=O)N[C@@H](Cc2ccccc2)C(=O)O)cc1` (Tos-[Sar]-Phe-OH), the melting point is reported as 128 to 130 °C. In the case of `Cn1ccnc1CCNS(=O)(=O)c1ccccc1NS(=O)(=O)c1cccc(C(F)(F)F)c1`, the melting point is reported as 171 to 176 °C. In the case of `CC(=O)Nc1ccc(C(=O)OCC=CC(C)Oc2ccc(Oc3cnc4cc(Cl)ccc4n3)cc2)cc1` (stereo not given), the melting point is reported as 62 to 68 °C. For `COC(=O)c1cc(O)c(N=Nc2ccccc2)c(OC(C)=O)c1`, the melting point was 162 °C. In the case of `O=Cc1c2ccccc2c(Cl)c2c(Cl)cccc12`, the melting point is reported as 167 to 170 °C. Work on `Cc1cccc2[nH]c3c(c12)CCOC3(C)CC(=O)O` (stereo not given) yielded a melting point of 132 to 134 °C. `O=C(CCCCOc1ccc(-c2ccccc2)cc1)NO` gave a melting point of 152 to 154 °C. `O=c1[nH][nH]c(=S)n(CCO)c1=O` showed a melting point of 230 °C. For `CCN(c1cccc(Cl)c1)C(C(=O)O)c1c(Cl)cccc1Cl` (stereo not given), the melting point was 120 °C. In the case of `CCOC(=O)NCCc1cccc(-c2ccnc3c(C#N)cnn23)c1`, the melting point is reported as 133 to 135 °C. For `CSc1ccc(-c2n[nH]c(=O)cc2-c2ccc(F)cc2)cc1`, the melting point was 197 to 198 °C. For `CN(C)CCCCCCSc1ncccc1C(=O)c1cccs1`, the melting point was 69 to 71 °C. `CC(C)(C)c1ccc(NS(=O)(=O)c2ccc(N3CCNC3=O)cc2)cc1` showed a melting point of 241 to 243 °C. With `CCOC(=O)c1sc(NC(=O)NN)nc1C` the melting point was 225 to 230 °C. Work on `CCCCc1nccn1-c1nc(Cl)nc2nc[nH]c12` yielded a melting point of 247 to 248 °C. With `OC1CSC(Oc2ccccn2)C(O)C1O` (stereo not given) the melting point was 196 °C. In the case of `Fc1cccc2c(CCCc3ccc(Cl)cc3)ccnc12`, the melting point is reported as 97 °C. With `COC(=O)c1ccc(OC)cc1I` the melting point was 185 °C. For `Cc1cccc(-c2[nH]nnc2-c2ccc3c(c2)NC(=O)CO3)n1`, the melting point was 224 °C. Work on `Cc1c(SCCCCl)ccnc1CSc1nc2ccccc2[nH]1` yielded a melting point of 112 to 114 °C. Molecule `CN(C)C(=O)Nc1ccc(NCc2ccc(Cl)cc2Cl)cc1N` has a melting point of 147 to 152 °C. `CC(C)c1cn(C)cc(-c2cccc(C(F)(F)F)c2)c1=O` gave a melting point of 98.5 to 99.5 °C. In the case of `CCCOc1ccc(CNC=C2C(=O)N(O)C(=O)c3ccccc32)cc1O`, the melting point is reported as 176 to 178 °C. `COc1c(C(C)C)cc(S(N)(=O)=O)c(C)c1C(=O)NCC1CCCN1CC1CC1` (stereo not given) gave a melting point of 125 °C. In the case of `O=C(Nc1ccc(Cl)nc1)c1cc2cc(F)ccc2n1Cc1ccncc1`, the melting point is reported as 244 to 246 °C. In the case of `CCN1C(=O)N=NC1c1ccc(Cl)cc1` (stereo not given), the melting point is reported as 190 to 197 °C. Molecule `O=C(OCc1cc(-c2ccccc2)c(=O)n2c1-c1sccc1CC2)N1CCOCC1` has a melting point of 163 to 164 °C. `N#CC(N)C(=O)c1ccc(C=O)cc1` (stereo not given) gave a melting point of 122 to 125 °C. With `COCCOc1ccc(N=Nc2c(C#N)[nH]n(-c3ccccc3)c2=O)cc1S(=O)(=O)O` the melting point was 263 to 265 °C. Work on `CCCN(CC)C(C)CN1CCc2c(c(=O)oc3cc(OC)c(OC)cc23)C1` (stereo not given) yielded a melting point of 93 to 96 °C. Work on `Cc1c(F)cc(C(C)(C)C)c(O)c1-c1nc2ccc(F)cc2c(=O)[nH]1` yielded a melting point of 247 to 248 °C. With `CC(=O)N1CCC(c2nn(-c3ccccc3)c3cc(Cl)ccc23)CC1` the melting point was 130 to 132 °C. `CCCCc1ccc(N2C(=O)CN(Cc3ccccc3)C2=S)cc1` gave a melting point of 149 to 151 °C. Molecule `CN(c1ccc(O)cc1)c1cc2ccc(F)cc2c(O)n1` has a melting point of 249 °C. Work on `Cc1c(C(=O)CCl)c(C)n(C)c1C(=O)c1ccc(Cl)cc1Cl` yielded a melting point of 100 to 102 °C. `CC(=O)Oc1cccc(-c2nc(=O)n(C(C)C)c3cc(C)ccc23)c1` gave a melting point of 148 to 150 °C. In the case of `N#CCn1nnc(NC(=O)C2c3ccccc3Oc3ccccc32)n1`, the melting point is reported as 204 to 205 °C. `O=C(C[C@H]1CC[C@@H](C(=O)O)N1Cc1ccccc1)N[C@@H](Cc1ccc(OCc2c(Cl)cccc2Cl)cc1)C(=O)O` showed a melting point of 198 to 202 °C. `CC(C)(C)Cc1ccc(C#N)c(=O)[nH]1` showed a melting point of 211 to 212 °C. Molecule `COC(=O)C1C=CCN2C(=O)C(C)(CCOC3CCCCO3)C(=O)N12` (stereo not given) has a melting point of 128 °C. In the case of `C=C1C(=C)C2OC1c1cc3c(OC)ccc(OC)c3cc12`, the melting point is reported as 205 to 206 °C. `CCOC(=O)C1=C(C)NC(C)=C(C(=O)OCC2CC2)C1c1cccc([N+](=O)[O-])c1` (stereo not given) showed a melting point of 169 to 170 °C. With `O=C1CCOc2c1ccc(O)c2Cc1ccccc1` the melting point was 176 °C. For `CCCCn1c(=O)n(CC=C(C)C)c(=O)c2c1ncn2S(=O)(=O)c1ccc(C)cc1`, the melting point was 130 to 135 °C. `O=C(c1cc(-c2ccccc2)c(=O)n2c1-c1ccccc1C2)N1CCOCC1` gave a melting point of 262 to 266 °C. In the case of `C[Si](C)(C)c1cc(CCC(=O)O)co1`, the melting point is reported as 25 °C. Molecule `Cc1ccccc1Oc1cccc(C=O)c1O` has a melting point of 56 to 58 °C. Molecule `C[C@]12CCC(=O)N[C@@H]1CCc1cc(Sc3cccc4ccccc34)ccc12` has a melting point of 199 to 201 °C. `CC(C)(C)OC(=O)NCC1CCCc2ccc(C(=O)O)cc21` (stereo not given) gave a melting point of 172 to 176 °C. In the case of `Fc1cc(C(F)(F)F)ccc1/C=C/c1nc(COc2ccc(-c3nc(Cn4ccnc4)co3)cc2)co1`, the melting point is reported as 150 to 153 °C. `O=c1nc(-c2cccc(CN3CCCCC3)n2)sc2ccccc12` gave a melting point of 162 to 163 °C. `CCC1(NC2=NS(=O)(=O)c3sc(Cl)cc3N2)CCC1` showed a melting point of 244 to 246 °C. Molecule `Cn1cc(C=O)c(=O)c2cc(C(F)(F)F)ccc21` has a melting point of 205 °C. Molecule `Cc1cccc2c1N(CC(=O)N1CC3CCC(CC3)C1)C(=O)C(NC(=O)Nc1cccc(C=O)c1)N=C2c1ccccc1F` (stereo not given) has a melting point of 237 to 242 °C. Work on `Cc1[nH]cnc1CC1CCc2c(C)c3ccccc3n2C1=O` (stereo not given) yielded a melting point of 226 to 229 °C. Work on `COc1cc(Br)c(OC)c(/C=C/C(=O)/C=C/c2cc(OC)cc(Br)c2OC)c1` yielded a melting point of 122 to 125 °C. In the case of `CN(C)C1(c2cccc(F)c2)CCC(=O)CC1`, the melting point is reported as 83 to 88 °C. With `N#Cc1ccccc1OC[C@H]1CO1` the melting point was 84 to 86 °C. Molecule `COC(=O)c1ccc(Cc2cn(C(C)C)c3ccc(C=CCC(=O)N(C)C)cc23)c(OC)c1` has a melting point of 118 to 120 °C. Molecule `Cc1c(C(F)(F)F)cnc(O)c1Cl` has a melting point of 204 to 205 °C. Work on `O=c1cc(C(F)(F)F)nc(Cl)n1-c1cc(Oc2ncccn2)c(Cl)cc1F` yielded a melting point of 132 to 134 °C. `CCN(CC)C(=O)c1ccc2ccccc2c1-c1ccc(N(C)C)cc1` showed a melting point of 140 to 141 °C. For `O=C(Cl)c1sc2cc(Oc3ccccc3)ccc2c1Cl`, the melting point was 121 to 123 °C. In the case of `COC(=O)c1sc(CBr)cc1NC(=O)Nc1ccc(C)cc1`, the melting point is reported as 157 to 158 °C. `C#Cc1cc(Nc2ncnc3cnc(NC(=O)/C=C/CN(C)C)cc23)ccc1F` gave a melting point of 152 to 155 °C. `COC(=O)C(C(=O)Cc1ccccc1)C1c2ccccc2C(=O)N1c1ccc2ccc(Cl)nc2n1` (stereo not given) showed a melting point of 185 °C. For `CCOC(=O)N1CCN(c2ncc(F)c(SC)n2)CC1`, the melting point was 110 to 112 °C. Work on `Cc1cn(-c2ccc(NC(=O)c3ccc(C)c(C#Cc4ccc(NC5CC5)nn4)c3)cc2C(F)(F)F)cn1` yielded a melting point of 125 to 126 °C. `COc1ccc(-c2cc(=Nc3c(C)cc(C)cc3C)n(C)c3nncn23)cc1OC` showed a melting point of 125 to 130 °C. With `CC(=O)CC(=O)N(C)c1cccc(-c2ccc3nnc(C)n3n2)c1` the melting point was 138 to 141 °C.
